Measured values published in the supplement of paper PMC10307832.

Columns and labels:
Experiment in all cases: relative viability (nuclei count vs DMSO), 5 days (fraction); higher = more cells survive
NPK76-II-72-1 = compound: CC1CC(=O)N(C2=CN=C(N=C2N1C3CCCC3)NC4=C(C=C(C=C4)C(=O)NC5CCN(CC5)C)OC)C [NPK76-II-72-1]
Procedure, shortened: (§1)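 Hoechst staining, done together with fixation and permeabilisation, marked nuclei for 4× imaging and MetaXpress counting. This followed 5 days without medium change after lung cancer cell lines, kept overnight at 37 °C in 1536-well plates, were pinned with five library-drug doses (not always all listed) spaced by √10 on vehicle-anchored plates. Viability is the ratio of treated-well to vehicle-well nuclei, expressed as a median across plates. Plates passed only at control CV below 25% with at least one doubling.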

BI-2536 = compound: CC[C@@H]1C(=O)N(C)c2cnc(Nc3ccc(C(=O)NC4CCN(C)CC4)cc3OC)nc2N1C1CCCC1 [BI-2536]
Procedure, shortened: as §1

[1] = compound: CC1CC(=O)N(C2=CN=C(N=C2N1C3CCCC3)NC4=C(C=C(C=C4)C(=O)NC5CCN(CC5)C)OC)C [NPK76-II-72-1] + CC1(C)CCC(c2ccc(Cl)cc2)=C(CN2CCN(c3ccc(C(=O)NS(=O)(=O)c4ccc(N[C@H](CCN5CCOCC5)CSc5ccccc5)c(S(=O)(=O)C(F)(F)F)c4)cc3)CC2)C1 [Navitoclax] (partner 0.5 µM)
Procedure, shortened: (§2)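 Dosing by pin tool came one day after lung cancer cell lines were seeded in 1536-well plates, using either one drug or a fixed anchor-drug dose plus five library-drug doses (not always all listed) in √10 steps. After 5 days, nuclei were counted on 4× images. Relative viability is treated-well nuclei count divided by vehicle-well nuclei count, and values are medians of duplicate plates.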

[2] = compound: CC1CC(=O)N(C2=CN=C(N=C2N1C3CCCC3)NC4=C(C=C(C=C4)C(=O)NC5CCN(CC5)C)OC)C [NPK76-II-72-1] + COc1cc2c(Oc3ccc(NC(=O)C4(C(=O)Nc5ccc(F)cc5)CC4)cc3F)ccnc2cc1OCCCN1CCOCC1 [Foretinib] (partner 0.25 µM)
Procedure, shortened: as §2

Row | Cell Line | relative viability (NPK76-II-72-1; 0.01 µM) | relative viability (NPK76-II-72-1; 0.03162 µM) | relative viability (NPK76-II-72-1; 0.1 µM) | relative viability (NPK76-II-72-1; 0.3162 µM) | relative viability (NPK76-II-72-1; 1 µM) | relative viability (BI-2536; 0.01 µM) | relative viability (BI-2536; 0.03162 µM) | relative viability (BI-2536; 0.1 µM) | relative viability (BI-2536; 0.3162 µM) | relative viability (BI-2536; 1 µM) | relative viability ([1]; first compound 0.01 µM) | relative viability ([1]; first compound 0.03162 µM) | relative viability ([1]; first compound 0.1 µM) | relative viability ([1]; first compound 0.3162 µM) | relative viability ([1]; first compound 1 µM) | relative viability ([2]; first compound 0.01 µM) | relative viability ([2]; first compound 0.03162 µM) | relative viability ([2]; first compound 0.1 µM) | relative viability ([2]; first compound 0.3162 µM) | relative viability ([2]; first compound 1 µM)
1 | PC-3 [JPC-3] | 1.02 | 1.11 | 0.945 | 1.08 | 1.07 | 1.07 | 0.99 | 0.751 | 0.281 | 0.282 | 0.742 | 0.806 | 0.735 | 0.672 | 0.848 | 1.04 | 1.06 | 0.96 | 0.952 | 1.12
2 | BEN | 0.941 | 0.928 | 0.903 | 0.904 | 0.996 | 0.948 | 0.982 | 0.671 | 0.386 | 0.355 | 0.0828 | 0.0731 | 0.0563 | 0.0637 | 0.063 | 0.676 | 0.526 | 0.748 | 0.657 | 0.635
3 | NCI-H1666 | 0.957 | 0.992 | 0.959 | 0.845 | 1.11 | 0.945 | 0.959 | 0.9 | 0.466 | 0.377 | 0.917 | 0.858 | 0.961 | 0.722 | 1.06 | 0.909 | 1.04 | 0.855 | 0.918 | 1.06
4 | LC-2-ad | 1.01 | 0.996 | 0.952 | 1 | 0.978 | 0.954 | 0.703 | 0.222 | 0.211 | 0.215 | 0.469 | 0.501 | 0.599 | 0.395 | 0.541 | 0.908 | 0.948 | 0.94 | 0.809 | 1.08
5 | SK-LU-1 | 0.987 | 1.02 | 1.02 | 0.947 | 1.01 | 1.03 | 0.989 | 0.477 | 0.248 | 0.225 | 0.747 | 0.996 | 1.31 | 0.168 | 0.838 | 0.814 | 0.83 | 0.879 | 0.833 | 0.893
6 | ChaGo-K-1 | 0.985 | 0.951 | 1.04 | 0.941 | 0.921 | 0.911 | 0.965 | 0.674 | 0.239 | 0.197 | 0.937 | 0.955 | 1.09 | 0.944 | 0.64 | 0.923 | 0.91 | 0.994 | 0.92 | 0.882
7 | COR-L 105 | 0.976 | 0.932 | 0.977 | 0.878 | 0.965 | 0.904 | 0.909 | 0.665 | 0.252 | 0.343 | 0.801 | 0.742 | 0.799 | 0.717 | 0.761 | 0.865 | 1.25 | 1.06 | 1.03 | 0.89
8 | NCI-H1975 | 0.963 | 0.942 | 0.954 | 0.931 | 1.02 | 0.859 | 0.975 | 0.612 | 0.207 | 0.159 | 0.956 | 1.05 | 1.04 | 0.993 | 1.26 | 1.01 | 0.981 | 0.826 | 0.929 | 0.943
9 | Calu-6 | 0.988 | 1.05 | 1.03 | 0.954 | 0.996 | 1.02 | 0.861 | 0.51 | 0.117 | 0.111 | 0.879 | 0.942 | 0.894 | 0.809 | 0.889 | 0.833 | 0.991 | 0.772 | 0.823 | 0.913
10 | NCI-H1993 | 0.827 | 0.981 | 0.942 | 0.89 | 1.09 | 1.04 | 0.793 | 0.543 | 0.684 | 0.587 | 1.05 | 0.969 | 0.884 | 0.706 | 1.01 | 0.801 | 0.791 | 0.868 | 0.604 | 0.808
11 | RERF-LC-KJ | 0.959 | 1.01 | 0.986 | 0.889 | 1.06 | 0.987 | 1.01 | 0.765 | 0.211 | 0.237 | 0.878 | 0.925 | 1.17 | 0.851 | 1.14 | 0.768 | 0.899 | 0.894 | 0.808 | 0.884
12 | NCI-H23 | 0.944 | 1.06 | 0.854 | 0.957 | 1.11 | 0.926 | 0.797 | 0.179 | 0.141 | 0.17 | 0.774 | 1.08 |  | 0.675 | 0.784 | 0.955 | 0.88 | 0.954 | 0.99 | 0.973
13 | HCC-366 | 0.994 | 0.999 | 1 | 1.09 | 0.97 | 1.04 | 1.06 | 0.677 | 0.0316 | 0.0344 | 1.09 | 1.11 | 1.07 | 1.13 | 0.978 | 0.929 | 0.953 | 0.906 | 0.944 | 0.951
14 | EMC-BAC-2 | 0.916 | 0.96 | 0.981 | 0.921 | 1.05 | 0.979 | 1.03 | 0.505 | 0.238 | 0.246 | 1.13 | 1.17 | 1.1 | 1.17 | 1.19 | 1.05 | 1.07 | 1.07 | 0.945 | 1.2
15 | NCI-H2405 | 0.986 | 0.991 | 1.03 | 1.01 | 1.05 | 0.965 | 0.918 | 0.465 | 0.279 | 0.406 | 0.834 | 0.965 | 0.806 | 0.844 | 1.17 | 1.05 | 1.08 | 0.999 | 1.03 | 1.17
